19 compounds from patent US9125913B2, “Bcl-2-selective apoptosis-inducing agents for the treatment of cancer and immune diseases” (AbbVie Inc., priority 2008, dated 2015) can be followed below.

For the experiment, the system named is GST-Bcl-2. The experiment in a line: TR-FRET binding assay, Bcl-2. The conditions noted are these: TR-FRET Ki values. The method in brief: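 Compounds serially diluted in DMSO from 50 μM (2× starting concentration, 10% DMSO), mixed with GST-tagged protein, F-Bak peptide probe and Tb-labeled antibody, incubated 3 h at room temperature.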
As to `CC1(C)CCC(CN2CCN(c3ccc(C(=O)NS(=O)(=O)c4cnc(OCC5CCOCC5)c(Cl)c4)c(Oc4cccc5[nH]ccc45)c3)CC2)=C(c2ccc(Cl)cc2)C1` [EXAMPLE 387, 4-(4-{[2-(4-chlorophenyl)-4,4-dimethylcyclohex-1-en-1-yl]methyl}piperazin-1-yl)-N-{[5-chloro-6-(tetrahydro-2H-pyran-4-ylmethoxy)pyridin-3-yl]sulfonyl}-2-(1H-indol-4-yloxy)benzamide], the “Binding selectivity ratio (Bcl-XL Ki/Bcl-2 Ki)” value (“Binding selectivity ratio” below) is recorded as 1723.4. As for `CC1(C)CCC(CN2CCN(c3ccc(C(=O)NS(=O)(=O)c4ccc(NC5CCN(S(C)(=O)=O)CC5)c([N+](=O)[O-])c4)c(Oc4ccc5[nH]ccc5c4)c3)CC2)=C(c2ccc(Cl)cc2)C1` [EXAMPLE 335, 4-(4-{[2-(4-chlorophenyl)-4,4-dimethylcyclohex-1-en-1-yl]methyl}piperazin-1-yl)-2-(1H-indol-5-yloxy)-N-[(4-{[1-(methylsulfonyl)piperidin-4-yl]amino}-3-nitrophenyl)sulfonyl]benzamide], the “Binding selectivity ratio” value is given as over 1508.2. Next, `CC1(C)CCC(CN2CCN(c3ccc(C(=O)NS(=O)(=O)c4ccc(N[C@H]5CC[C@H](N6CCOCC6)CC5)c([N+](=O)[O-])c4)c(Oc4ccc5[nH]ccc5c4)c3)CC2)=C(c2ccc(Cl)cc2)C1` [Example 178, Trans-4-(4-{[2-(4-chlorophenyl)-4,4-dimethylcyclohex-1-en-1-yl]methyl}piperazin-1-yl)-2-(1H-indol-5-yloxy)-N-({4-[(4-morpholin-4-ylcyclohexyl)amino]-3-nitrophenyl}sulfonyl)benzamide]: over 2915.8; `O=C(NS(=O)(=O)c1ccc(NCCCN2CCOCC2)c(S(=O)(=O)C(F)(F)F)c1)c1ccc(N2CCN(Cc3ccccc3-c3ccc(Cl)cc3)CC2)cc1Oc1cccc2[nH]ccc12` [Example 65, 4-{4-[(4′-chloro-1,1′-biphenyl-2-yl)methyl]piperazin-1-yl}-2-(1H-indol-4-yloxy)-N-({4-[(3-morpholin-4-ylpropyl)amino]-3-[(trifluoromethyl)sulfonyl]phenyl}sulfonyl)benzamide]: 4.8.

With `COCCNc1ccc(S(=O)(=O)NC(=O)c2ccc(N3CCN(CC4=C(c5ccc(Cl)cc5)CC(C)(C)CC4)CC3)cc2Oc2cccc3[nH]ccc23)cc1S(=O)(=O)C(F)(F)F` [EXAMPLE 309, 4-(4-{[2-(4-chlorophenyl)-4,4-dimethylcyclohex-1-en-1-yl]methyl}piperazin-1-yl)-2-(1H-indol-4-yloxy)-N-({4-[(2-methoxyethyl)amino]-3-[(trifluoromethyl)sulfonyl]phenyl}sulfonyl)benzamide], the “Binding selectivity ratio” value was over 149.4. Take `O=C(NS(=O)(=O)c1ccc(NCC2CCOCC2)c(S(=O)(=O)C(F)(F)F)c1)c1ccc(N2CCN(Cc3cc(OCCN4CCOCC4)ccc3-c3ccc(Cl)cc3)CC2)cc1Oc1ccccc1` [Example 117, 4-(4-{[4′-chloro-4-(2-morpholin-4-ylethoxy)-1,1′-biphenyl-2-yl]methyl}piperazin-1-yl)-2-phenoxy-N-({4-[(tetrahydro-2H-pyran-4-ylmethyl)amino]-3-[(trifluoromethyl)sulfonyl]phenyl}sulfonyl)benzamide]: the “Binding selectivity ratio” value is over 287.1.

For the compound `CC1(C)CCC(CN2CCN(c3ccc(C(=O)NS(=O)(=O)c4ccc(NCCc5ccc(S(N)(=O)=O)cc5)c([N+](=O)[O-])c4)c(Oc4ccc5[nH]ccc5c4)c3)CC2)=C(c2ccc(Cl)cc2)C1` [EXAMPLE 376, N-{[4-({2-[4-(aminosulfonyl)phenyl]ethyl}amino)-3-nitrophenyl]sulfonyl}-4-(4-{[2-(4-chlorophenyl)-4,4-dimethylcyclohex-1-en-1-yl]methyl}piperazin-1-yl)-2-(1H-indol-5-yloxy)benzamide], the “Binding selectivity ratio” value is on record as over 29.5. Turning to `CN(C)CC#Cc1ccc(-c2ccc(Cl)cc2)c(CN2CCN(c3ccc(C(=O)NS(=O)(=O)c4ccc(NCC5CCOCC5)c([N+](=O)[O-])c4)c(Oc4cccc5[nH]ccc45)c3)CC2)c1` [EXAMPLE 209, 4-[4-({4′-chloro-4-[3-(dimethylamino)prop-1-ynyl]-1,1′-biphenyl-2-yl}methyl)piperazin-1-yl]-2-(1H-indol-4-yloxy)-N-({3-nitro-4-[(tetrahydro-2H-pyran-4-ylmethyl)amino]phenyl}sulfonyl)benzamide], the “Binding selectivity ratio” value is over 2476.0. For the compound `CC(C)N(C)CCCNc1ccc(S(=O)(=O)NC(=O)c2ccc(N3CCN(Cc4ccccc4-c4ccc(Cl)cc4)CC3)cc2Oc2ccccc2)cc1[N+](=O)[O-]` [Example 93, 4-{4-[(4′-chloro-1,1′-biphenyl-2-yl)methyl]piperazin-1-yl}-N-{[4-({3-[isopropyl(methyl)amino]propyl}amino)-3-nitrophenyl]sulfonyl}-2-phenoxybenzamide], the “Binding selectivity ratio” value is reported as 60. The result for `CC1(C)CCC(CN2CCN(c3ccc(C(=O)NS(=O)(=O)c4cnc(OCC5CCOCC5)c(Br)c4)c(Oc4cccc5[nH]ccc45)c3)CC2)=C(c2ccc(Cl)cc2)C1` [EXAMPLE 364, N-{[5-bromo-6-(tetrahydro-2H-pyran-4-ylmethoxy)pyridin-3-yl]sulfonyl}-4-(4-{[2-(4-chlorophenyl)-4,4-dimethylcyclohex-1-en-1-yl]methyl}piperazin-1-yl)-2-(1H-indol-4-yloxy)benzamide] reads 12197.3; that for `COC1CCN(c2ccc(S(=O)(=O)NC(=O)c3ccc(N4CCN(CC5=C(c6ccc(Cl)cc6)CC(C)(C)CC5)CC4)cc3Oc3ccc4[nH]ccc4c3)cc2[N+](=O)[O-])CC1` [EXAMPLE 271, 4-(4-{[2-(4-chlorophenyl)-4,4-dimethylcyclohex-1-en-1-yl]methyl}piperazin-1-yl)-2-(1H-indol-5-yloxy)-N-{[4-(4-methoxypiperidin-1-yl)-3-nitrophenyl]sulfonyl}benzamide], over 107.2; that for `O=C(NS(=O)(=O)c1ccc(NCC2CCOCC2)c([N+](=O)[O-])c1)c1ccc(N2CCN(Cc3ccccc3-c3ccc(Cl)cc3)CC2)cc1Oc1cccc2ccccc12` [Example 34, 4-{4-[(4′-chloro-1,1′-biphenyl-2-yl)methyl]piperazin-1-yl}-2-(1-naphthyloxy)-N-({3-nitro-4-[(tetrahydro-2H-pyran-4-ylmethyl)amino]phenyl}sulfonyl)benzamide], 44.3. The result for `COC1CCC(Nc2ccc(S(=O)(=O)NC(=O)c3ccc(N4CCN(CC5=C(c6ccc(Cl)cc6)CC(C)(C)CC5)CC4)cc3Oc3ccc4[nH]ccc4c3)cc2[N+](=O)[O-])CC1` (stereo not shown) [EXAMPLE 265, 4-(4-{[2-(4-chlorophenyl)-4,4-dimethylcyclohex-1-en-1-yl]methyl}piperazin-1-yl)-2-(1H-indol-5-yloxy)-N-({4-[(4-methoxycyclohexyl)amino]-3-nitrophenyl}sulfonyl)benzamide] reads over 388.8; that for `CC(c1ccccc1-c1ccc(Cl)cc1)N1CCN(c2ccc(C(=O)NS(=O)(=O)c3ccc(NN4CCN(C)CC4)c([N+](=O)[O-])c3)c(Oc3cccc4[nH]ccc34)c2)CC1` (stereo not shown) [EXAMPLE 217, 4-{4-[1-(4′-chloro-1,1′-biphenyl-2-yl)ethyl]piperazin-1-yl}-2-(1H-indol-4-yloxy)-N-({4-[(4-methylpiperazin-1-yl)amino]-3-nitrophenyl}sulfonyl)benzamide], 171.1. Next, `O=C(NS(=O)(=O)c1ccc(NCC2CCOCC2)c([N+](=O)[O-])c1)c1ccc(N2CCN(Cc3cc(OCCCN4CCCCC4)ccc3-c3ccc(Cl)cc3)CC2)cc1Oc1ccccc1` [Example 114, 4-(4-{[4′-chloro-4-(3-piperidin-1-ylpropoxy)-1,1′-biphenyl-2-yl]methyl}piperazin-1-yl)-N-({3-nitro-4-[(tetrahydro-2H-pyran-4-ylmethyl)amino]phenyl}sulfonyl)-2-phenoxybenzamide]: 149.2.

In the case of `CC1(C)CCC(CN2CCN(c3ccc(C(=O)NS(=O)(=O)c4ccc(NCC5CCS(=O)(=O)C5)c([N+](=O)[O-])c4)c(Oc4ccc5[nH]ccc5c4)c3)CC2)=C(c2ccc(Cl)cc2)C1` (stereo not shown) [EXAMPLE 275, 4-(4-{[2-(4-chlorophenyl)-4,4-dimethylcyclohex-1-en-1-yl]methyl}piperazin-1-yl)-N-[(4-{[(1,1-dioxidotetrahydrothien-3-yl)methyl]amino}-3-nitrophenyl)sulfonyl]-2-(1H-indol-5-yloxy)benzamide], the “Binding selectivity ratio” value is listed as over 6832.4. Next, `CC(=O)N1CCC(Nc2ccc(S(=O)(=O)NC(=O)c3ccc(N4CCN(CC5=C(c6ccc(Cl)cc6)CC(C)(C)CC5)CC4)cc3Oc3cccc4[nH]ccc34)cc2[N+](=O)[O-])CC1` [EXAMPLE 337, N-({4-[(1-acetylpiperidin-4-yl)amino]-3-nitrophenyl}sulfonyl)-4-(4-{[2-(4-chlorophenyl)-4,4-dimethylcyclohex-1-en-1-yl]methyl}piperazin-1-yl)-2-(1H-indol-4-yloxy)benzamide]: over 1233.3; “4-(4-{[2-(4-chlorophenyl)-4,4-dimethylcyclohex-1-en-1-yl]methyl}piperazin-1-yl)-N-{[4-({[Cis-4-hydroxy-1-adamantyl]methyl}amino)-3-nitrophenyl]sulfonyl}-2-(1H-indol-5-yloxy)benzamide [EXAMPLE 322]”: over 3591.4; `CC1(C)CCC(CN2CCN(c3ccc(C(=O)NS(=O)(=O)c4ccc(NCCC5CCOCC5)c([N+](=O)[O-])c4)c(Oc4ccc5[nH]ccc5c4)c3)CC2)=C(c2ccc(Cl)cc2)C1` [EXAMPLE 291, 4-(4-{[2-(4-chlorophenyl)-4,4-dimethylcyclohex-1-en-1-yl]methyl}piperazin-1-yl)-2-(1H-indol-5-yloxy)-N-({3-nitro-4-[(2-tetrahydro-2H-pyran-4-ylethyl)amino]phenyl}sulfonyl)benzamide]: over 1179.1.
